Here are results for 11 compounds from ChEMBL document CHEMBL1201862, “PubChem BioAssay data set” (2004).

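48-hour exposure; five concentrations; linearly interpolated endpoints. The concentration for 50% growth inhibition is given as GI50.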 Calls of active or inactive are those of the source. No stated cut-off is given here; in the data, active = GI50 up to about 1.1 µM and inactive = higher. Where only a bound is given, the exact number is not on record here.

Assay in all cases: DTP human tumour cell line panel, 48 h
Assay [1] deals with COLO 205.
In assay [2] the test system is SN12C.
Assay [3] relates to SK-MEL-2.
The subject of assay [4] is OVCAR-4.
Assay [5] deals with MCF7.
The subject of assay [6] is OVCAR-3.
Assay [7] has as its system HOP-92.
Assay [8] concerns U-251.
In assay [9] the test system is NCI-H460.
In assay [10] the test system is K562.
Assay [11] concerns SK-OV-3.
The test system of assay [12] is HT-29.
In assay [13] the test system is OVCAR-5.
Assay [14] deals with MOLT-4.
Assay [15] has as its system IGROV-1.
The test system of assay [16] is SNB-19.
The test system of assay [17] is RXF 393.
The test system of assay [18] is RPMI-8226.
Assay [19] deals with Malme-3M.
Assay [20] relates to SNB-75.

For the compound `O=C(O)CC(CC(=O)O)n1cccc1`, the GI50 in assay [1], in assay [2], in assay [3], in assay [4], in [5] and in assay [6] was > 100 µM (inactive) throughout. The GI50 in [7], in [8], in assay [9], in assay [10], in [11] and in [12] was > 100 µM (inactive) in each case. For the same compound, the GI50 in assay [13], in [14], in assay [15], in assay [16], in assay [17] and in assay [18] was > 100 µM (inactive) in each case.

As to `CCOC(=O)c1nnn(CCCCO)c1C(=O)OCC`, the GI50 in assay [1], in assay [19], in [2], in [20], in assay [3] and in assay [4] was > 100 µM (inactive) in each case. Also, the GI50 in assay [5], in [7], in assay [8], in [9], in assay [12] and in assay [14] was > 100 µM (inactive) in each case. Moreover, the GI50 in [15] was > 100 µM (inactive); in assay [16], 30.1 µM (inactive); in assay [17] it was > 100 µM (inactive).

Consider `N#CSC#CCCC#CSC#N`, for which the GI50 in assay [1] was 12.9 µM (inactive); in assay [19], 17.9 µM (inactive); in assay [2] it was 17.7 µM (inactive); in assay [3] it was 20.3 µM (inactive); in assay [4], 27.1 µM (inactive); in assay [5], 20.7 µM (inactive). For the same compound, the GI50 in [6] was 21.6 µM (inactive); in assay [7], 17.5 µM (inactive); in [8], 16.9 µM (inactive); in [9], 22.2 µM (inactive); in [10], 13.4 µM (inactive); in [11], 16.1 µM (inactive). Further, the GI50 in [12] was 21.3 µM (inactive); in [13] it was 20.6 µM (inactive); in assay [14], 2.58 µM (inactive); in assay [15] it was 20.3 µM (inactive); in [16], 15.5 µM (inactive); in [17], 18.9 µM (inactive).

For the compound `COC(=O)/C=C(\C)CC/C=C(\C)CCC(O)C(C)(C)O` (stereo not drawn), the GI50 is 19.7 µM (inactive) in assay [1]; 17.5 µM (inactive) in assay [19]; 19.3 µM (inactive) in [2]; 17.1 µM (inactive) in [20]; 15.9 µM (inactive) in assay [3]; 48.5 µM (inactive) in [4]. Further, the GI50 in assay [5] was 37 µM (inactive); in assay [6], 17.9 µM (inactive); in assay [7], 29.9 µM (inactive); in assay [8], 28.2 µM (inactive); in assay [9] it was 19.8 µM (inactive); in [10] it was 26.1 µM (inactive). For the same compound, the GI50 was > 100 µM (inactive) in assay [11]; 31.4 µM (inactive) in assay [12]; 60.4 µM (inactive) in assay [13]; 15.2 µM (inactive) in [14]; 25.8 µM (inactive) in [15]; > 100 µM (inactive) in assay [16]. For the same compound, the GI50 in assay [17] is 26.3 µM (inactive).

On to `O=C(O)c1ccc(Nc2cnc3cc(C(F)(F)F)ccc3n2)cc1`, for which the GI50 in assay [1] is > 100 µM (inactive); in assay [19] it was 29.5 µM (inactive); in assay [2], 85.5 µM (inactive); in [20] it was 35.6 µM (inactive); in assay [5], 38 µM (inactive); in assay [6], 34.5 µM (inactive). Moreover, the GI50 in assay [8] was 48.2 µM (inactive); in [9], 36.1 µM (inactive); in assay [10], 29.5 µM (inactive); in [12], 63.2 µM (inactive); in assay [13], 34 µM (inactive); in [14] it was 47.5 µM (inactive). Also, the GI50 is 25.3 µM (inactive) in assay [15], 60 µM (inactive) in assay [16], 46.9 µM (inactive) in [17] and 35.2 µM (inactive) in assay [18].

On to `CC1=CC(=O)C[C@]2(C)[C@@H](O)CC(C(C)CO)C[C@@H]12` (stereo partly drawn), for which the GI50 in [1], in assay [2], in assay [20], in assay [3], in [4] and in assay [5] was > 100 µM (inactive) each time. Besides, the GI50 in [6], in assay [7], in assay [8], in [9], in assay [11] and in [12] was > 100 µM (inactive) in each case. Further, the GI50 in assay [13], in assay [14], in assay [15], in assay [16] and in [17] was > 100 µM (inactive) each time.

Turning to `C=CCOC1(CC=C)C(=O)OC2C(O)COC21O` (stereo not drawn), the GI50 in assay [1], in [19], in [2], in [3], in assay [4] and in assay [5] was > 100 µM (inactive) throughout. Moreover, the GI50 in [6], in assay [8], in assay [9], in [10], in [11] and in [12] was > 100 µM (inactive) each time. Also, the GI50 in assay [13], in [14], in assay [15], in assay [16] and in [17] was > 100 µM (inactive) throughout.

As to `CCOC(=O)c1ccc(NCc2ccc3oc(=O)c(-c4ccccc4)nc3c2)cc1`, the GI50 in assay [1] was 23.2 µM (inactive); in assay [19] it was 18.8 µM (inactive); in assay [2] it was > 100 µM (inactive); in [20] it was 9.48 µM (inactive); in assay [3], > 100 µM (inactive); in assay [4] it was 18 µM (inactive). Also, the GI50 in assay [5] is 15.8 µM (inactive); in [6], 18.7 µM (inactive); in [7], 31.2 µM (inactive); in assay [8], 61.2 µM (inactive); in assay [9] it was > 100 µM (inactive); in assay [10] it was 22.5 µM (inactive). Further, the GI50 in [11] was > 100 µM (inactive); in [12] it was 57.4 µM (inactive); in assay [13], > 100 µM (inactive); in [14] it was 15.1 µM (inactive); in assay [15] it was 67 µM (inactive); in [16], > 100 µM (inactive). For the same compound, the GI50 in [17] is 8.36 µM (inactive).

For the compound `CNC1=CC(=O)C2=C(C1=O)[C@H]1CC[C@]3(C)C(=O)CC[C@H]3[C@@H]1CC2`, the GI50 in assay [1] was 13.7 µM (inactive); in [2], 19.9 µM (inactive); in assay [20], 14.3 µM (inactive); in [3] it was 2.63 µM (inactive); in assay [4], 9.38 µM (inactive); in assay [5] it was 20.2 µM (inactive). Also, the GI50 in assay [6] is 1.16 µM (inactive); in [7], 12 µM (inactive); in assay [8] it was 21.8 µM (inactive); in assay [9] it was 18.5 µM (inactive); in [10], 12.6 µM (inactive); in assay [11], 43.6 µM (inactive). Moreover, the GI50 in assay [13] is 22.7 µM (inactive); in assay [14], 11.1 µM (inactive); in assay [15], 5.43 µM (inactive); in assay [16], 17.7 µM (inactive); in assay [17], 15.2 µM (inactive); in assay [18], 17.3 µM (inactive).

In the case of `CN(C)c1ccc(/C=C(\NC(=O)c2ccccc2)C(=O)NC(CC(=O)O)C(=O)O)cc1` (stereo not drawn), the GI50 in assay [1] was > 100 µM (inactive); in [2] it was > 100 µM (inactive); in assay [20] it was 1.99 µM (inactive); in [3] it was > 100 µM (inactive); in assay [4] it was 53.2 µM (inactive); in assay [5], > 100 µM (inactive). The GI50 in assay [6] was 52.7 µM (inactive); in assay [7], > 100 µM (inactive); in assay [8] it was > 100 µM (inactive); in assay [9], 65.9 µM (inactive); in assay [10], 18.2 µM (inactive); in assay [11], > 100 µM (inactive). For the same compound, the GI50 in assay [12], in assay [13], in [14], in assay [15], in [16] and in assay [17] was > 100 µM (inactive) in each case. Also, in [18], the GI50 was > 100 µM (inactive).

With `COc1cc(/C=C2\N=C(c3ccccc3)N(c3nc4ccccc4s3)C2=O)cc(OC)c1OC`, the GI50 in assay [2] is 26.5 µM (inactive); in assay [20] it was 23.1 µM (inactive); in [3], 90.8 µM (inactive); in [4] it was 23.9 µM (inactive); in [5], 31.3 µM (inactive); in [6], 20 µM (inactive). Also, the GI50 in [7] was 26.2 µM (inactive); in assay [8], 26.1 µM (inactive); in [9], 65.5 µM (inactive); in assay [10], 16.5 µM (inactive); in [12], 26.9 µM (inactive); in assay [13], > 100 µM (inactive). In addition, the GI50 in [14] was 11.7 µM (inactive); in [15], 28.6 µM (inactive); in assay [16], 34.2 µM (inactive); in assay [17] it was 18.8 µM (inactive); in assay [18] it was 0.352 µM (active).

For orientation: GI50 means the concentration that inhibits growth by half.
